What was measured:
in vitro = conditions: for Papp at 6 h, 25 μg/mL: PAMPA; for Increase in Papp: with probiotic bacteria vs control without probiotics
Procedure: Hydrophobic MultiScreen PVDF microfiltration plates with 96 wells and a pore diameter of 0.45 μm (Millipore, USA) were used as acceptor plates and as supports for the artificial membrane. Each well of the acceptor plate was impregnated with 6 μL of a 2% lecithin solution in n-dodecane, and after solvent evaporation, an artificial membrane was formed. To the corresponding wells of the acceptor plate, 200 μL of PBS buffer (pH 7.4) was added, while 300 μL of the tested compound solution in respective buffer was added to the wells of the donor plate (MultiScreen Transport Receiver Plate, Millipore, USA). All analyses were conducted in triplicate at three different pH values in the donor compartment, while the pH value in the acceptor compartment was always 7.4. The donor plate was aligned with the acceptor plate to initiate incubation. Incubation of samples was performed at 37°C in a sealed PAMPA system to minimize oxygen exposure. […] Before HPLC injection, protein precipitation was achieved by diluting a 50 μL sample from the donor compartment fivefold with acetonitrile, followed by centrifugation at 15,000 rpm for 10 min at +4°C, as described by Đanić et al. ([Ðanić et al., 2019]). Subsequently, 100 μL of the supernatant was directly injected into the HPLC system.
After determining the concentrations of the tested compounds in the donor and acceptor wells, apparent permeability coefficients (Papp) were calculated and expressed in units of cm/s based on the equation: Papp=C×−ln 1−Ca/Ceq where C is a correction factor calculated as: C=Vd×Va/Vd+Va×S×t
The equilibrium drug concentration (Ceq) was determined using mass balance: Ceq=Cd×Vd+Ca×Va/Vd+Va
In these equations, Ca represents the drug concentration in the acceptor compartment after 6 h, Ceq is the equilibrium drug concentration determined based on mass balance, Va and Vd denote the volumes of the acceptor and donor compartments, respectively, measured in milliliters, t represents the time period over which permeability was assessed, expressed in seconds, and S refers to the membrane surface area in square centimeters. The surface area of the artificial membrane was calculated to be 0.24 cm^2, as the acceptor filter membrane plates have a surface area of 0.32 cm^2 and a porosity of 75%, according to the manufacturer’s data.
Sample analysis was performed using high-performance liquid chromatography (HPLC; Dionex) with a diode array detector (DAD). […] Briefly, the chromatographic analysis was performed using a reverse-phase Zorbax Eclipse Plus C18 column (150 mm × 2.1 mm, 5 μm; Agilent Technologies, USA), coupled with a Zorbax Extend C18 guard column (12.5 mm × 2.1 mm, 5 μm; Agilent Technologies, USA). During the analysis, the column temperature was maintained at a constant 25°C, and the injection volume was 20 μL. Elution was performed using an isocratic program, with the mobile phase consisting of 50% AcN and 50% phosphate buffer adjusted to pH 3.3 with orthophosphoric acid, with the addition of 0.5 mL triethylamine as a column modifier. The total analysis time was 5 min, with a constant flow rate of the mobile phase at 0.3 mL/min. […] The eluate was monitored using a UV/DAD detector at a wavelength of 276 nm.

[1] = pH 5.8, Henderson-Hasselbalch equation
[2] = cited from earlier work

Cn1cnc([N+](=O)[O-])c1Sc1ncnc2nc[nH]c12 [azathioprine]
Papp at 6 h, 25 μg/mL (in vitro; Permeability [Papp x10^−7] [cm/s]): 0.193 ± 0.014 ×10⁻⁶ cm/s
Papp at 6 h, 25 μg/mL (in vitro; Permeability class across the PAMPA membrane): < 1 ×10⁻⁶ cm/s
Papp at 6 h, 25 μg/mL (in vitro; pH 7.4, Permeability [Papp x10^−7] [cm/s]): 0.134 ± 0.005 ×10⁻⁶ cm/s
Rise of azathioprine levels in the acceptor compartment (in vitro; incubated with probiotics, 6 h): less than 1%
Increase in Papp (in vitro; pH 5.8): 2.2 fold
Increase in Papp (in vitro; pH 6.5): 1.9 fold
Increase in Papp (in vitro; pH 7.4): 2.5 fold
Increase of azathioprine concentration in the acceptor compartment (in vitro; with probiotics vs control without probiotics (AP vs. A), pH 5.8, 6 h): 18%
Increase of azathioprine concentration in the acceptor compartment (in vitro; with probiotics vs control without probiotics (AP vs. A), pH 7.4, 6 h): 57%
Increase of azathioprine concentration in the acceptor compartment (in vitro; with probiotics vs control without probiotics, pH 6.5, 6 h): 26%
Ionization percentage [1]: 0.84%
Biopharmaceutics Classification System (BCS) class ([2]; low solubility and low permeability, ref Bocci et al., 2022): Class IV
logP ([2]; ref Hansch et al., 1996): 0.1
